System: male rats (SD, F344, WF)
Assay: Effects of ENU treatment on male rat fertility (breeding to same-strain females)
Assay type: in vivo
Settings: for % fertile males: weeks 7-26 post-ENU
Experimental: ENU mutagenesis rat protocol: Pathogen-free inbred Wistar Furth (WF), inbred Fischer-344 (F344) and outbred Sprague Dawley (SD) male and female rats were obtained from Harlan Sprague Dawley, Inc. (Indianapolis, Ind.). All rats were given Teklad Lab Blox chow (Harlan Teklad, Madison, Wis.), acidified water ad libitum, and were housed under a 12-h light/12-h dark cycle. After a one week acclimation period, nine-week-old male rats were administered ENU as a single intraperitoneal injection; for a split dose, rats were injected with ENU once at 9 weeks of age and again at 10 weeks of age. One gram of ENU (Sigma) was dissolved in 10 mls of 95% ethanol and then diluted with 90 mls of phosphate citrate buffer prior to injection. All injections of ENU were given in the morning hours. To characterize the effect of ENU treatment on fertility in the various rat strains, mutagenized males were paired with untreated females of the same strain for consecutive 2-3 week periods, beginning 3-5 weeks after the first ENU treatment and continuing a minimum of 26 weeks post-ENU. We observed female rats for vaginal plugs, gross pregnancy and date of birth/size of litters. For our phenotypic mutant (phenodeviant) rat screening experiments, ENU-treated SD male rats were bred with SD female rats and all F1 pups were visually checked for gross abnormalities in physical development or behavior as compared to littermates at least twice prior to weaning at approximately 21 days of age. A subset of the F1 phenodeviant rats identified was bred to SD rats to determine inheritance of the observed phenotypic mutation. Several of the heritable phenodeviant rat lines are currently being maintained and backcrossed to eliminate residual ENU-induced genetic changes not associated with the phenotypic mutation.
Optimization of ENU dosages: We examined several rat strains, inbred WF and F344 rats and outbred SD rats in which groups of male rats were given either single or split doses of ENU. These male rats were then bred to same-strain female rats at various times post-ENU to test for fertility (Table 1). The three rat strains were unable to regain fertility following large doses of ENU. The WF strain was extremely sensitive to ENU-induced sterility. […] The SD and F344 strains responded in a similar manner with maximum ENU doses of 100-150 mg/kg, allowing for some percentage of rats to remain fertile or recover fertility; however, the F344 strain was more sensitive to split dose protocols compared to the SD rats. […] This phenomenon was also true for the both the F344 and WF rat strains. […] It also appears from the SD and F344 fertility data shown in Table 1 that these rat strains were more likely to remain fertile or regain fertility following a split dose of ENU versus a single dose when the total dose exposure was equal. In addition, average litter size was reduced in both the SD and F344 strains around weeks 1-9 post-ENU (data not shown), the same time period in which we observed reduced fertility in the ENU-treated males.

With `CCN(N=O)C(N)=O` [ENU, N-ethyl-N-nitrosourea] as the compound, how does the “fertility of treated males” value (F344, 75 mg/kg) read?
The value was “All rats remained fertile”.

And the “rats that maintained fertility” value (F344, 100 mg/kg given in either a single or split dose)?
The value was “about 60%”.

And the “% fertile males” value (F344, single dose 75 mg/kg i.p.)?
The value was 100%.

What about the “% fertile males” value (F344, single dose 100 mg/kg i.p.) of the same compound?
The value was 67%.

What about the “% fertile males” value (F344, single dose 120 mg/kg i.p.) of the same compound?
The value was 0%.

What about the “% fertile males” value (F344, split dose 2 × 50 mg/kg) of the same compound?
The value was 60%.

What about the “% fertile males” value (F344, split dose 2 × 60 mg/kg) of the same compound?
The value was 40%.

What about the “% fertile males” value (F344, split dose 2 × 75 mg/kg) of the same compound?
The value was 0%.

What about the “% fertile males” value (F344, split dose 2 × 100 mg/kg) of the same compound?
The value was 0%.

What about the “maximum ENU doses allowing some percentage of rats to remain fertile or recover fertility” value (SD and F344 strains) of the same compound?
Its value is 100 to 150 mg/kg.

And the average litter size (SD and F344 strains, around weeks 1-9 post-ENU (data not shown))?
The average litter size was “reduced”.

And the “% fertile males” value (SD, single dose 75 mg/kg i.p.)?
The value was 100%.

What about the “% fertile males” value (SD, single dose 100 mg/kg i.p.) of the same compound?
Its value is 80%.

What about the “% fertile males” value (SD, single dose 120 mg/kg i.p.) of the same compound?
Its value is 33%.

What about the “% fertile males” value (SD, single dose 150 mg/kg i.p.) of the same compound?
The value was 0%.

What about the “% fertile males” value (SD, single dose 200 mg/kg i.p.) of the same compound?
The value was 0%.

What about the “fertility of treated males” value (SD, split dose 2×50 mg/kg or 2×60 mg/kg, after a brief recovery period) of the same compound?
The value was “fully fertile”.

What about the “% fertile males” value (SD, split dose 2 × 50 mg/kg) of the same compound?
The value was 100%.

And the “% fertile males” value (SD, split dose 2 × 60 mg/kg)?
The value was 100%.

What about the “% fertile males” value (SD, split dose 2 × 75 mg/kg) of the same compound?
The value was 20%.

And the “% fertile males” value (SD, split dose 2 × 100 mg/kg)?
The value was 0%.

And the “maximum total dose after which fertile males were obtained” value (WF strain)?
The value was 50 mg/kg.

And the “male rats permanently sterilized” value (WF, 25 mg/kg single injection)?
The value was “approximately 70%”.

And the “% fertile males” value (WF, single dose 25 mg/kg i.p.)?
Its value is 30%.

And the “% fertile males” value (WF, single dose 35 mg/kg i.p.)?
Its value is 33%.

And the “% fertile males” value (WF, single dose 50 mg/kg i.p.)?
The value was 25%.

And the “% fertile males” value (WF, single dose 75 mg/kg i.p.)?
The value was 0%.

And the “% fertile males” value (WF, single dose 100 mg/kg i.p.)?
The value was 0%.

What about the “% fertile males” value (WF, split dose 2 × 15 mg/kg) of the same compound?
Its value is 17%.

What about the “% fertile males” value (WF, split dose 2 × 25 mg/kg) of the same compound?
Its value is 17%.

And the “% fertile males” value (WF, split dose 2 × 50 mg/kg)?
Its value is 0%.

What about the “% fertile males” value (WF, split dose 2 × 75 mg/kg) of the same compound?
The value was 0%.

From patent US20070056052A1, “Methods of generating knock-out rodents” (priority 2001, published 2007)
